For one experiment, the system named is Human melanocytes. Kind of experiment: Melanin production assay in melanocytes. It is filed as cell-based. The note with it: 6 days. As to the method: Materials and Methods: Human melanocytes from a moderately pigmented donor were purchased from Cascade Biologics (Portland, Oregon). Human dermal fibroblasts were purchased from Cambrex (Rockland, ME). In order to determine the optimal concentrations of the test materials for the whitening experiment, these materials were first examined in a proliferation assay with human dermal fibroblasts. The highest non-interfering concentration was determined for each test material and further 5-fold dilutions were made for use in melanocytes cultures. The following assay was used to the effects of the materials on melanin production. Melanocytes were seeded in the fully-supplemented 254 medium (Cascade) in 96 well plates and test materials were added 24 h later. Cells were grown for 6 days with one growth medium change. At the end of the experiment, cells were lysed with the Cellytic Mammalian Cell Lysis/Extraction Reagent (Sigma, St. Louis, MO) and melanin was solubilized in 2N NaOH. Melanin content was determined spectrophotometrically at 405 nm and standardized to total protein content from the same cultures, using Bradford reagent (Sigma, St. Louis, MO). Kojic acid was used as positive control. Cell cultures were monitored on a Nikon Eclipse inverted microscope.

The next experiment concerns Mushroom Tyrosinase. Kind of experiment: Tyrosinase activity, modified Pomerantz method. The note with it: H20 = 100.0. It is filed as biochemical. As to the method:
Tyrosinase activity was measured by the modified Pomerantz method (Biophys Res Commun, 1964). Mushroom Tyrosinase (Sigma #3212816630) stock enzyme was 5 U/well (25 U/ml). The substrate (I-DOPA, Fisher Scientific, Pittsburgh, PA) stock solution was 20 mM. Working solution was prepared in PBS for each assay. The reaction mixture consisted of 50 μl 20 mM I-DOPA and 10 μl undiluted test sample. Reaction was initiated by adding tyrosinase. Assays were preformed in 96 well flat-bottom microtiter plates (Fisher #0720087) and read at 490 nm after 5, 10, and 20 min.

As for `O=C1O[C@H]([C@@H](O)CO)C(O)=C1O[C@H]1O[C@H](CO)[C@@H](O)[C@H](O)[C@H]1O` [Ascorbyl Glucoside, Ascorbyl glucoside], the “Melanin content (% of water control)” value in the experiment on Human melanocytes (Dilution Factor 1/25-1/125, H20 = 100%) was 75-65.5%. Besides, the “Tyrosinase activity, % of water control” value worked out at 33.8 in the experiment with Mushroom Tyrosinase (read at 490 nm after 5 min), 30.6 with Mushroom Tyrosinase (read at 490 nm after 10 min) and 30.1 in the experiment on Mushroom Tyrosinase (read at 490 nm after 20 min).

`O=c1cc(CO)occ1O` [Kojic acid]: the activity at 200 µM with Human melanocytes (Melanocyte, 144 h, 200 μM, H20 = 100%, read-out: Melanin Inhibition in Cells) worked out at 83%. Moreover, the “Tyrosinase activity, % of water control” value came to 39.0 in the experiment on Mushroom Tyrosinase (read at 490 nm after 5 min), 35.5 in the experiment on Mushroom Tyrosinase (read at 490 nm after 10 min) and 33.1 in the experiment with Mushroom Tyrosinase (read at 490 nm after 20 min).

The values are drawn from patent US12714657B2, “Magnolia extract containing compositions” (MARY KAY INC., priority 2007, dated 2026).
